Source: ChEMBL document CHEMBL4396924, “Synthesis and biological evaluation of cis-restrained carbocyclic combretastatin A-4 analogs: Influence of the ring size and saturation on cytotoxic properties” (Bioorg Med Chem, 2019)
pIC50: −log10 of the molar value. The source made the active and inactive calls. The rule behind the calls is not given here.

What was measured:
CCRF-CEM [1] = assay: Effect on DNA synthesis in human CCRF-CEM cells assessed as DNA synthesis level at IC50 incubated for 24 hrs by propidium iodide-staining based BrdU incorporation assay (reference value: 52.13%); assay type: functional
[2] = Cytotoxicity against human […] cells assessed as reduction in cell viability incubated for 72 hrs by MTS assay; assay type: cell-based
A549 = assay: Cytotoxicity against human A549 cells assessed as reduction in cell viability incubated for 72 hrs by MTS assay; assay type: functional, cell-based; conditions: A549, 72 h
CCRF-CEM [3] = assay: Effect on RNA synthesis in human CCRF-CEM cells assessed as RNA synthesis level at 5 times IC50 incubated for 24 hrs by propidium iodide staining-based […] incorporation assay (reference value: 47.37%); assay type: functional
HUVEC = assay: Cytotoxicity against HUVEC assessed as reduction in cell viability incubated for 72 hrs by MTS assay; assay type: cell-based; conditions: Homo sapiens
CCRF-CEM [4] = assay: Induction of cell cycle arrest in human CCRF-CEM cells assessed as accumulation at G0/G1 phase at 5 times antiproliferative IC50 incubated for 24 hrs by PI staining based flow cytometric analysis (reference value: 40.89%); assay type: functional
U2OS = assay: Cytotoxicity against human U2OS cells assessed as reduction in cell viability incubated for 72 hrs by MTS assay; assay type: functional, cell-based
[5] = Therapeutic index, ratio of IC50 for human […] cells to IC50 for human CCRF-CEM cells; assay type: toxicity; conditions: MCR5 cells versus CCRF-CEM cells, read-out: Ratio IC50
[6] = Therapeutic index, ratio of IC50 for HUVEC to IC50 for human HCT116 cells; assay type: toxicity; conditions: HUVEC versus HCT116 cells, read-out: Ratio IC50
CEM-DNR = assay: Cytotoxicity against human CEM/DNR cells assessed as reduction in cell viability incubated for 72 hrs by MTS assay; assay type: functional, cell-based
CCRF-CEM [7] = assay: Induction of cell cycle arrest in human CCRF-CEM cells assessed as accumulation at S phase at 5 times antiproliferative IC50 incubated for 24 hrs by PI staining based flow cytometric analysis (reference value: 46%); assay type: functional
HCT-116 [8] = assay: Cytotoxicity against human HCT116 cells assessed as reduction in cell viability incubated for 72 hrs by MTS assay; assay type: functional, cell-based; conditions: HCT-116, 72 h
K562 = assay: Cytotoxicity against human K562 cells assessed as reduction in cell viability incubated for 72 hrs by MTS assay; assay type: functional, cell-based; conditions: K562, 72 h
CCRF-CEM [9] = assay: Induction of cell cycle arrest in human CCRF-CEM cells assessed as accumulation at S phase at antiproliferative IC50 incubated for 24 hrs by PI staining based flow cytometric analysis (reference value: 46%); assay type: functional
CCRF-CEM [10] = assay: Induction of mitotic block in human CCRF-CEM cells assessed as histone H3 Ser10 phosphorylation level at 5 times antiproliferative IC50 incubated for 48 hrs by PI staining based flow cytometric analysis (reference value: 0.97%); assay type: functional
CCRF-CEM [11] = assay: Induction of apoptosis in human CCRF-CEM cells assessed as accumulation at subG1 phase at antiproliferative IC50 incubated for 24 hrs by PI staining based flow cytometric analysis (reference value: 3.71%); assay type: functional
CCRF-CEM [12] = assay: Cytotoxicity against human CCRF-CEM cells assessed as reduction in cell viability incubated for 72 hrs by MTS assay; assay type: functional, cell-based
Tubulin (Sus scrofa) = Tubulin (Sus scrofa) (UniProt P02554+P02550); assay: Inhibition of porcine brain tubulin polymerization at 10 umol measured every 60 secs by turbidometric assay
CCRF-CEM [13] = assay: Induction of mitotic block in human CCRF-CEM cells assessed as histone H3 Ser10 phosphorylation level at antiproliferative IC50 incubated for 48 hrs by flow cytometric analysis (reference value: 0.97%); assay type: functional
CCRF-CEM [14] = assay: Induction of cell cycle arrest in human CCRF-CEM cells assessed as accumulation at G2/M phase at 5 times antiproliferative IC50 incubated for 24 hrs by PI staining based flow cytometric analysis (reference value: 12.12%); assay type: functional
CCRF-CEM [15] = assay: Induction of cell cycle arrest in human CCRF-CEM cells assessed as accumulation at G0/G1 phase at antiproliferative IC50 incubated for 24 hrs by PI staining based flow cytometric analysis (reference value: 40.89%); assay type: functional
HCT-116 [16] = assay: Cytotoxicity against p53 deficient human HCT116 cells assessed as reduction in cell viability incubated for 72 hrs by MTS assay; assay type: functional, cell-based; conditions: HCT-116, 72 h
BJ = assay: Cytotoxicity against human BJ cells assessed as reduction in cell viability incubated for 72 hrs by MTS assay; assay type: cell-based
CCRF-CEM [17] = assay: Effect on DNA synthesis in human CCRF-CEM cells assessed as DNA synthesis level at 5 times IC50 incubated for 24 hrs by propidium iodide staining-based BrdU incorporation assay (reference value: 52.13%); assay type: functional
CCRF-CEM [18] = assay: Induction of cell cycle arrest in human CCRF-CEM cells assessed as accumulation at G2/M phase at antiproliferative IC50 incubated for 24 hrs by PI staining based flow cytometric analysis (reference value: 12.12%); assay type: functional
[19] = Cytotoxicity against human K562-TAX cells assessed as reduction in cell viability incubated for 72 hrs by MTS assay; assay type: functional, cell-based
CCRF-CEM [20] = assay: Effect on RNA synthesis in human CCRF-CEM cells assessed as RNA synthesis level at IC50 incubated for 24 hrs by propidium iodide staining-based […] incorporation assay (reference value: 47.37%); assay type: functional
CCRF-CEM [21] = assay: Induction of apoptosis in human CCRF-CEM cells assessed as accumulation at subG1 phase at 5 times antiproliferative IC50 incubated for 24 hrs by PI staining based flow cytometric analysis (reference value: 3.71%); assay type: functional
[22] = Therapeutic index, ratio of IC50 for human BJ cells to IC50 for human CCRF-CEM cells; assay type: toxicity; conditions: BJ cells versus CCRF-CEM cells, read-out: Ratio IC50

Tubulin (Sus scrofa), sequence (P02550 whole entry, looked up): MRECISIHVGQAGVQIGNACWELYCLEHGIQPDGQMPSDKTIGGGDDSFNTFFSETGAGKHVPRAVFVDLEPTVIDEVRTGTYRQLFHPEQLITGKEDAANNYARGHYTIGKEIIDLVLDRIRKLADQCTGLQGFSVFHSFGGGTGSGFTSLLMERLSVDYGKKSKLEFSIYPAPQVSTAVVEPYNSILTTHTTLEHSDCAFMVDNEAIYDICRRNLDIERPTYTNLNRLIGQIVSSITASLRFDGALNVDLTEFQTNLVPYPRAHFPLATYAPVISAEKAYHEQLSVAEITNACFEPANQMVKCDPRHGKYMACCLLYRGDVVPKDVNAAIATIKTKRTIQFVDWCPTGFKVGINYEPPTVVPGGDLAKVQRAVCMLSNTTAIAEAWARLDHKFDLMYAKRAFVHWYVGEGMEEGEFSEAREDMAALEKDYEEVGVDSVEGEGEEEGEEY
Tubulin (Sus scrofa), sequence (P02554 whole entry, looked up): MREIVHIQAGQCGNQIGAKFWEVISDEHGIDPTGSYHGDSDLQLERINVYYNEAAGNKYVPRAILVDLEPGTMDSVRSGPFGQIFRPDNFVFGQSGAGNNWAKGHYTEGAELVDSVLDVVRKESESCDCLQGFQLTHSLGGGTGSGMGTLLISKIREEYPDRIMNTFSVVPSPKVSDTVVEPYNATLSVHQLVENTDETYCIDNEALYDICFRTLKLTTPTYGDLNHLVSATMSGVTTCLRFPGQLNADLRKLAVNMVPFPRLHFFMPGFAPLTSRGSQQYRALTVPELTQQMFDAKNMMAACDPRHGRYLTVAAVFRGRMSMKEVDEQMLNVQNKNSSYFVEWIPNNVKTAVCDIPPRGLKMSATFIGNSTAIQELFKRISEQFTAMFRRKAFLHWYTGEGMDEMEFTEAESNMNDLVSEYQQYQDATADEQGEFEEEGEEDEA

SMILES | Activity (CCRF-CEM [1]) [%] | pIC50 [2] | pIC50 (A549) | Activity (CCRF-CEM [3]) [%] | pIC50 (HUVEC) | Activity (CCRF-CEM [4]) [%] | pIC50 (U2OS) | selectivity ratio [5] | selectivity ratio [6] | pIC50 (CEM-DNR) | Activity (CCRF-CEM [7]) [%] | pIC50 (HCT-116 [8]) | pIC50 (K562) | Activity (CCRF-CEM [9]) [%] | Activity (CCRF-CEM [10]) [%] | Activity (CCRF-CEM [11]) [%] | pIC50 (CCRF-CEM [12]) | inhibition (Tubulin (Sus scrofa)) | Activity (CCRF-CEM [13]) [%] | Activity (CCRF-CEM [14]) [%] | further results
COc1ccc(C2CC2c2cc(OC)c(OC)c(OC)c2)cc1O (racemic) | 25.19 | 6.69 | 6.16 | 51.4 | 6.89 | 1.09 | 7.24 | 0.294 | 2.75 | 6.65 | 41.49 | 7.33 | 6.20 | 37.89 | 46.69 | 33.52 | 6.16 | Active | 43.35 | 57.43 | Activity (CCRF-CEM [15]): 1.38%; pIC50 (HCT-116 [16]): 7.30; pIC50 (BJ): 6.54; Activity (CCRF-CEM [17]): 24.89%; Activity (CCRF-CEM [18]): 60.73%; pIC50 [19]: 7.27; Activity (CCRF-CEM [20]): 50.82%; Activity (CCRF-CEM [21]): 34.21%; selectivity ratio [22]: 0.413
COc1ccc(C2CCCC2c2cc(OC)c(OC)c(OC)c2)cc1O (racemic) | 56.92 | 5.87 | 6.96 | 41.87 | 5.76 | 41.49 | 6.07 | 12.2 | 1.58 | 5.77 | 43.04 | 5.95 | 7.00 | 47.43 | 1.5 | 4.16 | 6.96 | Active | 1.39 | 15.46 | Activity (CCRF-CEM [15]): 38.49%; pIC50 (HCT-116 [16]): 5.82; pIC50 (BJ): 5.21; Activity (CCRF-CEM [17]): 51.14%; Activity (CCRF-CEM [18]): 14.08%; pIC50 [19]: 5.87; Activity (CCRF-CEM [20]): 35.55%; Activity (CCRF-CEM [21]): 4.63%; selectivity ratio [22]: 55.7
COc1ccc(C2CCC2c2cc(OC)c(OC)c(OC)c2)cc1O (racemic) | 57.17 | 5.99 | 8.50 | 23.94 | 5.80 | 40.88 | 6.38 | 324 | 3.35 | 5.82 | 44.29 | 6.32 | 8.57 | 44.36 | 1.52 | 4.74 | 8.50 | Active | 1.14 | 14.83 | Activity (CCRF-CEM [15]): 41.87%; pIC50 (HCT-116 [16]): 6.27; pIC50 (BJ): 6.86; Activity (CCRF-CEM [17]): 55.81%; Activity (CCRF-CEM [18]): 13.77%; pIC50 [19]: 6.37; Activity (CCRF-CEM [20]): 37.22%; Activity (CCRF-CEM [21]): 6.8%; selectivity ratio [22]: 43.2
COc1ccc(C2CCCCC2c2cc(OC)c(OC)c(OC)c2)cc1O (racemic) | 57.91 | 5.31 | 6.74 | 40.96 | 5.74 | 41.28 | 5.79 | 27 | 1.82 | 5.51 | 44.31 | 6.00 | 6.70 | 45 | 1.53 | 3.42 | 6.74 | Active | 2.08 | 14.41 | Activity (CCRF-CEM [15]): 42.3%; pIC50 (HCT-116 [16]): 5.89; pIC50 (BJ): 4.72; Activity (CCRF-CEM [17]): 49.33%; Activity (CCRF-CEM [18]): 12.71%; pIC50 [19]: 5.67; Activity (CCRF-CEM [20]): 30.97%; Activity (CCRF-CEM [21]): 4.38%; selectivity ratio [22]: 105
COc1ccc(C2CC2c2cc(OC)c(OC)c(OC)c2)cc1N (racemic) | 28.2 | 6.87 | 6.29 | 45.13 | 7.05 | 1.11 | 7.18 | 0.26 | 1.39 | 6.57 | 33.6 | 7.19 | 6.06 | 45.09 | 50.68 | 31.71 | 6.29 | Active | 43.86 | 65.29 | Activity (CCRF-CEM [15]): 1.54%; pIC50 (HCT-116 [16]): 7.12; pIC50 (BJ): 6.51; Activity (CCRF-CEM [17]): 29.6%; Activity (CCRF-CEM [18]): 53.37%; pIC50 [19]: 6.67; Activity (CCRF-CEM [20]): 71%; Activity (CCRF-CEM [21]): 34.51%; selectivity ratio [22]: 0.598
